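Method: 48-hour compound exposure of cells in 96-well plates, five concentrations, linear interpolation of endpoints. Here, GI50 denotes the concentration required for 50% inhibition of growth. TGI marks complete inhibition of growth.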
How the values were obtained:
Assay in all cases: NCI tumour cell line growth inhibition, 48 h
EKVX NSCLC = system: EKVX NSCLC
SW-620 colon = system: SW-620 colon
NCI-H460 lung = system: NCI-H460 lung
OVCAR-4 ovarian = system: OVCAR-4 ovarian
SK-MEL-2 melanoma = system: SK-MEL-2 melanoma
HCT-116 colon = system: HCT-116 colon
UACC-257 melanoma = system: UACC-257 melanoma
HCT-15 colon = system: HCT-15 colon
K-562 leukemia = system: K-562 leukemia
HL-60(TB) leukemia = system: HL-60(TB) leukemia
UACC-62 melanoma = system: UACC-62 melanoma
LOX IMVI melanoma = system: LOX IMVI melanoma
U251 CNS = system: U251 CNS
MOLT-4 leukemia = system: MOLT-4 leukemia
MALME-3M melanoma = system: MALME-3M melanoma

Oc1c2c(c3c4c1N=CC=4CCN=3)C1(C=C(Br)C(O)C(Br)=C1)CCN2 (centres undefined)
TGI (EKVX NSCLC): 4.94 µM
TGI (SW-620 colon): 4.19 µM
TGI (NCI-H460 lung): 8.47 µM
TGI (OVCAR-4 ovarian): 2.86 µM
TGI (SK-MEL-2 melanoma): 11.8 µM
TGI (HCT-116 colon): 1.9 µM
TGI (UACC-257 melanoma): 1.27 µM
TGI (HCT-15 colon): 4.42 µM
TGI (K-562 leukemia): > 21 µM
TGI (HL-60(TB) leukemia): 2.08 µM
TGI (UACC-62 melanoma): 2.66 µM
TGI (LOX IMVI melanoma): 3.09 µM
TGI (U251 CNS): 5.44 µM

CCN(CC)CCOCC1CCCN2CCCCC12 (centres undefined)
TGI (EKVX NSCLC): > 100 µM
TGI (SW-620 colon): > 100 µM
TGI (MOLT-4 leukemia): > 100 µM
TGI (NCI-H460 lung): > 100 µM
TGI (OVCAR-4 ovarian): > 100 µM
TGI (SK-MEL-2 melanoma): > 100 µM
TGI (HCT-116 colon): > 100 µM
TGI (UACC-257 melanoma): > 100 µM
TGI (HCT-15 colon): > 100 µM
TGI (K-562 leukemia): > 100 µM
TGI (HL-60(TB) leukemia): > 100 µM
TGI (UACC-62 melanoma): > 100 µM
TGI (LOX IMVI melanoma): > 100 µM
TGI (MALME-3M melanoma): > 100 µM
TGI (U251 CNS): > 100 µM

CCCC(=O)[O-].CCCC(=O)[O-].N.N.N.N.[Co+3].[O-][Cl+3]([O-])([O-])[O-]
TGI (EKVX NSCLC): > 100 µM
TGI (SW-620 colon): > 100 µM
TGI (MOLT-4 leukemia): > 100 µM
TGI (NCI-H460 lung): > 100 µM
TGI (OVCAR-4 ovarian): > 100 µM
TGI (SK-MEL-2 melanoma): > 100 µM
TGI (HCT-116 colon): > 100 µM
TGI (UACC-257 melanoma): > 100 µM
TGI (HCT-15 colon): > 100 µM
TGI (K-562 leukemia): > 100 µM
TGI (HL-60(TB) leukemia): > 100 µM
TGI (UACC-62 melanoma): > 100 µM
TGI (LOX IMVI melanoma): > 100 µM
TGI (MALME-3M melanoma): > 100 µM
TGI (U251 CNS): > 100 µM

Cc1n(-c2ccccc2)c2c([n+]1Cc1ccc([N+](=O)[O-])cc1)C(=O)c1ccccc1C2=O
TGI (EKVX NSCLC): 5.7 µM
TGI (SW-620 colon): 6.63 µM
TGI (MOLT-4 leukemia): 2.57 µM
TGI (NCI-H460 lung): 12.4 µM
TGI (OVCAR-4 ovarian): 3.2 µM
TGI (SK-MEL-2 melanoma): 2.97 µM
TGI (HCT-116 colon): 4.36 µM
TGI (UACC-257 melanoma): 3.16 µM
TGI (HCT-15 colon): 22.5 µM
TGI (K-562 leukemia): 4.64 µM
TGI (HL-60(TB) leukemia): 1.35 µM
TGI (UACC-62 melanoma): 3.74 µM
TGI (LOX IMVI melanoma): 3.73 µM
TGI (MALME-3M melanoma): 3.05 µM
TGI (U251 CNS): 3.35 µM

Cc1cc(=O)[nH]c(NN2C(Cl)C(=O)C2c2c(O)ccc3ccccc23)n1 (centres undefined)
TGI (EKVX NSCLC): > 100 µM
TGI (SW-620 colon): > 100 µM
TGI (MOLT-4 leukemia): 64.1 µM
TGI (NCI-H460 lung): 29.6 µM
TGI (OVCAR-4 ovarian): 51.7 µM
TGI (SK-MEL-2 melanoma): 30.2 µM
TGI (HCT-116 colon): 48.8 µM
TGI (UACC-257 melanoma): > 100 µM
TGI (HCT-15 colon): 36.9 µM
TGI (K-562 leukemia): > 100 µM
TGI (HL-60(TB) leukemia): 49.3 µM
TGI (UACC-62 melanoma): 47.4 µM
TGI (LOX IMVI melanoma): 32.7 µM
TGI (U251 CNS): 63.1 µM

COc1cc(O)c2c(c1O)C(=O)c1cc(C)ncc1C2=O
TGI (EKVX NSCLC): > 50 µM
TGI (SW-620 colon): > 50 µM
TGI (MOLT-4 leukemia): > 50 µM
TGI (NCI-H460 lung): > 50 µM
TGI (OVCAR-4 ovarian): > 50 µM
TGI (SK-MEL-2 melanoma): > 50 µM
TGI (HCT-116 colon): > 50 µM
TGI (UACC-257 melanoma): 36.6 µM
TGI (HCT-15 colon): > 50 µM
TGI (K-562 leukemia): > 50 µM
TGI (HL-60(TB) leukemia): > 50 µM
TGI (UACC-62 melanoma): > 50 µM
TGI (LOX IMVI melanoma): 45.2 µM
TGI (MALME-3M melanoma): 27.6 µM
TGI (U251 CNS): 30.7 µM

CCCCCCCSCC1OC(n2cnc3c(N)ncnc32)C(O)C1O (centres undefined)
TGI (EKVX NSCLC): 56.2 µM
TGI (SW-620 colon): 46.5 µM
TGI (MOLT-4 leukemia): 62.4 µM
TGI (NCI-H460 lung): 42.1 µM
TGI (OVCAR-4 ovarian): 93 µM
TGI (SK-MEL-2 melanoma): 44.8 µM
TGI (HCT-116 colon): 11.4 µM
TGI (UACC-257 melanoma): 56.9 µM
TGI (HCT-15 colon): 22.7 µM
TGI (K-562 leukemia): > 100 µM
TGI (HL-60(TB) leukemia): 27.3 µM
TGI (LOX IMVI melanoma): > 100 µM
TGI (MALME-3M melanoma): > 100 µM
TGI (U251 CNS): > 100 µM

C[N+]1(CCCC[N+]2(C)CCCCCCC2)CCCCCCC1
TGI (EKVX NSCLC): > 100 µM
TGI (SW-620 colon): > 100 µM
TGI (MOLT-4 leukemia): > 100 µM
TGI (NCI-H460 lung): > 100 µM
TGI (OVCAR-4 ovarian): > 100 µM
TGI (SK-MEL-2 melanoma): > 100 µM
TGI (HCT-116 colon): > 100 µM
TGI (UACC-257 melanoma): > 100 µM
TGI (HCT-15 colon): > 100 µM
TGI (K-562 leukemia): > 100 µM
TGI (HL-60(TB) leukemia): > 100 µM
TGI (UACC-62 melanoma): > 100 µM
TGI (LOX IMVI melanoma): > 100 µM
TGI (MALME-3M melanoma): > 100 µM
TGI (U251 CNS): > 100 µM

NS(=O)(=O)c1ccc(N=Nc2nc3[nH]cnc(=S)c3[nH]2)cc1
TGI (EKVX NSCLC): > 100 µM
TGI (SW-620 colon): > 100 µM
TGI (MOLT-4 leukemia): 4.19 µM
TGI (NCI-H460 lung): 10.1 µM
TGI (OVCAR-4 ovarian): > 100 µM
TGI (HCT-116 colon): 16.3 µM
TGI (UACC-257 melanoma): > 87.6 µM
TGI (HCT-15 colon): > 50.9 µM
TGI (K-562 leukemia): > 53.1 µM
TGI (HL-60(TB) leukemia): 16.7 µM
TGI (UACC-62 melanoma): 8.72 µM
TGI (LOX IMVI melanoma): 15.4 µM
TGI (MALME-3M melanoma): 36 µM
TGI (U251 CNS): > 100 µM

Cc1n(CC(C)C)c2c([n+]1CC(=O)c1ccc([N+](=O)[O-])cc1)C(=O)c1ccccc1C2=O
TGI (SW-620 colon): < 0.036 µM
TGI (MOLT-4 leukemia): 0.0742 µM
TGI (NCI-H460 lung): 1.38 µM
TGI (OVCAR-4 ovarian): 0.055 µM
TGI (SK-MEL-2 melanoma): 0.0837 µM
TGI (UACC-257 melanoma): 0.0293 µM
TGI (HCT-15 colon): 15.6 µM
TGI (K-562 leukemia): 1.33 µM
TGI (HL-60(TB) leukemia): < 0.01 µM
TGI (UACC-62 melanoma): 0.104 µM
TGI (LOX IMVI melanoma): 0.131 µM
TGI (MALME-3M melanoma): < 0.0205 µM
TGI (U251 CNS): 0.034 µM

OCCN1CCN(c2nc(Nc3ccc(-c4nc5ccccc5[nH]4)cc3)c3cn[nH]c3n2)CC1
GI50 (EKVX NSCLC): 1.73 µM
TGI (EKVX NSCLC): 3.26 µM
GI50 (SW-620 colon): 0.464 µM
TGI (SW-620 colon): 1.87 µM
GI50 (HCT-15 colon): 1.15 µM
TGI (HCT-15 colon): 2.5 µM
GI50 (LOX IMVI melanoma): 1.63 µM
TGI (LOX IMVI melanoma): 3.13 µM

Nc1nc(Sc2ccc([N+](=O)[O-])cn2)c2[nH]cnc2n1
TGI (EKVX NSCLC): 50.2 µM
TGI (SW-620 colon): > 100 µM
TGI (MOLT-4 leukemia): > 35.8 µM
TGI (NCI-H460 lung): > 64.9 µM
TGI (OVCAR-4 ovarian): > 61.2 µM
TGI (SK-MEL-2 melanoma): 10.2 µM
TGI (HCT-116 colon): > 39.7 µM
TGI (UACC-257 melanoma): > 100 µM
TGI (HCT-15 colon): > 73.3 µM
TGI (K-562 leukemia): > 100 µM
TGI (HL-60(TB) leukemia): > 59.4 µM
TGI (UACC-62 melanoma): 11.6 µM
TGI (LOX IMVI melanoma): 17.1 µM
TGI (MALME-3M melanoma): 36.1 µM
TGI (U251 CNS): > 64.3 µM

C=CCCCCn1c2ccccc2c2c(C)c3c[n+](C)ccc3c(C)c21
TGI (SW-620 colon): 1.34 µM
TGI (MOLT-4 leukemia): 1.28 µM
TGI (OVCAR-4 ovarian): 1.27 µM
TGI (SK-MEL-2 melanoma): 1.52 µM
TGI (HCT-116 colon): 1.25 µM
TGI (UACC-257 melanoma): 1.47 µM
TGI (K-562 leukemia): 1.29 µM
TGI (HL-60(TB) leukemia): 0.921 µM
TGI (UACC-62 melanoma): 1.28 µM
TGI (MALME-3M melanoma): 1.16 µM
TGI (U251 CNS): 1.14 µM

NC(N)=NCCCC(NCc1c2ccccc2[n+]([O-])c2ccccc12)C(=O)O (centres undefined)
TGI (EKVX NSCLC): > 100 µM
TGI (SW-620 colon): > 100 µM
TGI (MOLT-4 leukemia): > 100 µM
TGI (NCI-H460 lung): > 100 µM
TGI (OVCAR-4 ovarian): > 100 µM
TGI (SK-MEL-2 melanoma): > 100 µM
TGI (HCT-116 colon): > 100 µM
TGI (UACC-257 melanoma): > 100 µM
TGI (HCT-15 colon): > 100 µM
TGI (K-562 leukemia): > 100 µM
TGI (HL-60(TB) leukemia): 58.7 µM
TGI (UACC-62 melanoma): > 100 µM
TGI (LOX IMVI melanoma): > 100 µM
TGI (MALME-3M melanoma): > 100 µM
TGI (U251 CNS): > 100 µM

Clc1ccc2c(Cl)nc(-c3ccccc3)nc2c1
TGI (EKVX NSCLC): 91.1 µM
TGI (SW-620 colon): > 100 µM
TGI (MOLT-4 leukemia): 84.5 µM
TGI (NCI-H460 lung): > 100 µM
TGI (SK-MEL-2 melanoma): 95 µM
TGI (HCT-116 colon): > 100 µM
TGI (UACC-257 melanoma): > 100 µM
TGI (K-562 leukemia): > 100 µM
TGI (HL-60(TB) leukemia): 45.8 µM
TGI (UACC-62 melanoma): > 100 µM
TGI (MALME-3M melanoma): > 100 µM
TGI (U251 CNS): 35.1 µM
